Measurements taken from article PMC4448987, “A neuroligin-1-derived peptide stimulates phosphorylation of the NMDA receptor NR1 subunit and rescues MK-801-induced decrease in long-term potentiation and memory impairment” (Pharmacology Research & Perspectives, 2015).
Where a name gives a salt, the structure may show the parent alone.

B1: NL1: rat recombinant NL1 ectodomain obtained from R&D Systems (protein, UniProt Q62765 46-697, looked up)
extracellular domain: QKLDDVDPLVTTNFGKIRGIKKELNNEILGPVIQFLGVPYAAPPTGEHRFQPPEPPSPWSDIRNATQFAPVCPQNIIDGRLPEVMLPVWFTNNLDVVSSYVQDQSEDCLYLNIYVPTEDVKRISKECARKPGKKICRKGDIRDSGGPKPVMVYIHGGSYMEGTGNLYDGSVLASYGNVIVITVNYRLGVLGFLSTGDQAAKGNYGLLDLIQALRWTSENIGFFGGDPLRITVFGSGAGGSCVNLLTLSHYSEGNRWSNSTKGLFQRAIAQSGTALSSWAVSFQPAKYARILATKVGCNVSDTVELVECLQKKPYKELVDQDVQPARYHIAFGPVIDGDVIPDDPQILMEQGEFLNYDIMLGVNQGEGLKFVENIVDSDDGVSASDFDFAVSNFVDNLYGYPEGKDVLRETIKFMYTDWADRHNPETRRKTLLALFTDHQWVAPAVATADLHSNFGSPTYFYAFYHHCQTDQVPAWADAAHGDEVPYVLGIPMIGPTELFPCNFSKNDVMLSAVVMTYWTNFAKTGDPNQPVPQDTKFIHTKPNRFEEVAWTRYSQKDQLYLHIGLKPRVKEHYRANKVNLWLELVPHLHNLNDISQYTSTTTKVPSTDITLRPTRKNSTPVTSAFPTAKQDDPKQQPSPFSVDQRDYSTELS
modifications: extracellular domain
notes: rat recombinant NL1 ectodomain obtained from R&D Systems

Tests used:
male Wistar rats [1] = experiment: Y maze test (spontaneous alternation); assay type: in vivo, rat; conditions: n = 6-12
Protocol: NMDA-mediated effects of Neurolide-1 on spatial working memory performance was assessed by recording spontaneous alternation behavior in a Y maze test performed as described previously (Wegener et al. [2011]), (See Data S1). Initially, adult male Wister rats (420–490 g, n = 6–12; Charles River) were injected s.c., three times at 28, 4, and 2 h before start of the Y maze test. One group received Neurolide-1, saline, and neurolide-1 in this order. Another group received saline, MK-801, and saline in this order. A third group received neurolide-1, MK-801, and neurolide-1 in this order. And control group received saline at all times. In a second setup we tested the effect of neurolide-1 in very young male Wistar rats (4-weeks old) which received a s.c., injection of neurolide-1 or saline 2 h prior to testing them in the Y-maze (n = 11–15). Terminally, rats were rapidly and humanely rendered unconscious by concussive stunning and euthanized by cervical dislocation.
The maze was made of gray polyvinyl chloride, with three identical arms (425 mm length × 225 mm height × 145 mm width) mounted symmetrically to an equilateral triangular center section. Each rat was placed at the end of one arm and allowed to explore the apparatus freely for 8 min. The sequence and number of all arm entries were recorded for each animal throughout the testing period. An alternation was defined as entries into all three arms on consecutive occasions. Therefore, the number of maximal alternation was the total number of arm entries minus 2, and the percentage of alternation was calculated as (actual alternations / maximal alternations) × 100. The total number of arms entered during the sessions was also determined (Yamaguchi et al, 2006). Data were eliminated in cases in which the number of total arm entries was less than 10 or when the rat escaped from the Y maze. After each trial, the Y maze was cleaned with 1% Virkon S (Pharmaxim, Helsingborg, Sweden).

male Wistar rats [2] = experiment: Spatial memory in the Morris water maze; assay type: in vivo; conditions: rat, n = 12
Protocol: The Morris water-maze test (Morris [1984]) was performed as previously described (Kraev et al. [2011]) with slight modifications (see Data S1). Male Wistar rats (Charles River), weighing 150–200 g on the day of arrival were used. To investigate for potential effects on memory consolidation, neurolide-1 was injected immediately after the training sessions on day 1 and 2 (n = 12 in each group). To test for potential effects on memory acquisition neurolide-1 was injected 2 h before start of training on training day 1 and 2 (n = 12 in each group). Finally, to test for potential effects on MK-801-induced learning deficiencies neurolide-1 was injected 2 h before start of training on day 2 and 3 in animals, which had received an injection with MK-801 30 min earlier (n = 6–9 in each group). In a slightly modified version of the MK-801 experiments a group of animals received a neurolide-1 injection immediately after the training sessions on day 1, and then a neurolide-1 injection 2 h before start of training on day 2, preceded by an MK-801 injection 30 min earlier (n = 12 in each group). Terminally, rats were rapidly and humanely rendered unconscious by concussive stunning and euthanized by cervical dislocation.
The Morris water maze test (Morris, 1984) was conducted in a 160 cm wide circular black tank placed in a dimly lit room and filled with 21°C water up to 20 cm from the top. The tank was surrounded by visual orientation marks, and a 10 cm wide escape platform was placed 1.5 cm below the water level for it to be unseen. A video camera was placed above the tank and connected to a computerized tracking system (Ethovision 3.1, Noldus IT, Wageningen, Holland). The tank was divided into four equal-size quadrants that also served as starting positions. The latency to locate the platform, time spent swimming, and swimming speed were scored within the defined zones (i.e., total area, quadrants, and a platform circle that was 60 cm in diameter with the center in the original platform location). Prior to training, the rats were handled 2 min daily for 5 days to minimize stress during the experiments.
Reference memory training consisted of three consecutive trials daily for 3 days. Each trial began with placing the animal in the water facing the wall of the pool. The starting position differed for each trial but was identical for all animals. In each trial, the animal was allowed 90 s to locate the platform. […] After each trial, the rats were allowed 20 s of orientation time on the platform and then removed from the pool for 20 s before the next trial was initiated. After the last trial each day, the animals were dried and returned to their home cages.
To test for effects on long-term memory, the animals were tested in a probe trial 24 h after the last reference memory training. In the probe trial, the platform was removed, and the animals began from a position in a quadrant adjacent to the original platform quadrant. The rats were allowed to swim for 60 s, after which the trial was stopped.

[3] = tested on: hippocampal slices, CA3-CA1 synapse (fEPSP slope); experiment: LTP in acute hippocampal slices from mice injected s.c.; assay type: in vivo, C57BL/6N mice; conditions: mice injected with MK-801 0.1 mg/kg s.c. alone, 1 h before sacrifice; slope 25-30 min after HFS vs before; mean ± SEM, n = 6
Protocol: Juvenile C57BL/6N mice of both sexes (postnatal day 16–24; Taconic, Ejby, Denmark) were injected subcutaneously (s.c.) with 10 mg/kg of the neurolide-1 peptide solution (10 mg/mL) and again 23 h later with 10 mg/kg of the neurolide-1 peptide solution (10 mg/mL) and 0.1 mg/kg MK-801 solution (0.025 mg/mL). Mice receiving the injection with the MK-801 solution only or untreated mice served as control groups. The young mice were rapidly and humanely euthanized with a minimum of distress by decapitation at a time point corresponding to 24 h after first injection. Preceding anesthetic was omitted to preserve the tissue free of drug residues and brain slice functions as unaltered as possible when performing the physiological measurements. After decapitation, the brain was removed. […]
Measurements were made in oxygenated aCSF at room temperature (1.1 mL/min). […] The field potential in the stratum radiatum of the CA1 area of the hippocampus was recorded with an extracellular glass microelectrode (4–6 MΩ, filled with aCSF), positioned at least 500 μm away from the stimulation electrode. […]

[4] = MK-801 0.1 mg/kg, cited from earlier work
[5] = tested on: NMDA receptor NR1 subunit (serine 897); experiment: NMDA receptor phosphorylation assay (immunoblot, anti-phospho-Ser897-NR1) in cultured cortical neurons; assay type: cell-based, Wistar rat; conditions: cultured rat cortical neurons, 5 min stimulation, NL1 ectodomain up to 5.4 nmol/L, four independent experiments
Protocol: Cortical neurons were obtained from Wistar rat embryos at embryonic day 19, of both sexes, basically as previously described (Maar et al. [1997]) (see Data S1). Briefly, animals were rendered unconscious by concussive stunning and euthanized by cervical dislocation. Hereafter, the embryonic brains were collected and cortical neurons were dissociated and seeded in 60-mm tissue culture dishes coated with 1 μg/mL of poly-D-lysine (Sigma-Aldrich, St. Louis, MO) and grown for 8 days before treatment. Then, the cultures were stimulated with either the NL1 ectodomain (0.2, 0.6, 1.8, and 5.4 nmol/L) or neurolide-1 (0.1, 0.3, 1, and 2.7 μmol/L) for 5 min. The cells were lysed, and proteins were resolved by sodium dodecyl sulfate-polyacrylamide gel electrophoresis followed by immunoblotting using rabbit anti-Ser897-NR1 antibody (1:500; Millipore, Billerica, MA), mouse anti-β-tubulin antibody (1:50,000; Sigma-Aldrich), and IRDye secondary antibodies (Odyssey, Lincoln, NE). The bands were visualized using the Odyssey CLX Infrared Imaging System (Odyssey). Four independent experiments with stimulation by NL1 ectodomain and eight independent experiments with stimulation by neurolide-1 were performed.

| Molecule | alternation rate (male Wistar rats [1]; adult rats 420-490 g, MK-801 0.1 mg/kg s.c. 4 h before test) [%] | total number of arm entries, single treatment (male Wistar rats [1]; adult rats, peptide alone or MK-801 alone) | learning (escape latency) in the water maze (male Wistar rats [2]; MK-801 0.1 mg/kg s.c. on day 2, 2.5 h before first training session) | velocity in the water maze (male Wistar rats [2]; MK-801 0.1 mg/kg s.c. with or without neurolide-1 10 mg/kg s.c. (long-term regimen)) | increase of fEPSP slope after high-frequency stimulation (LTP) [3] [%] | time after injection at which the increase in stereotypy peaked ([4]; returned to baseline 2 h later, ref Homayoun et al. [2004], Su et al. [2007]) [min] | motility ([4]; ref Verma and Moghaddam [1996], Homayoun et al. [2004]) | effect on NR1 phosphorylation at higher concentrations [5] |
| --- | --- | --- | --- | --- | --- | --- | --- | --- |
| C[C@]12N[C@H](Cc3ccccc31)c1ccccc12 [MK-801, (5S,10R)-(+)-5-methyl-10,11-dihydro-5H-dibenzo[a,d]cyclohepten-5,10-imine maleate] | ~50 | did not change | strongly inhibited learning | Neither treatments affected velocity | 27 ± 5 | 40 | induce hypermotility |  |
| B1 |  |  |  |  |  |  |  | did not have a statistically significant effect |
